Laboratory results: article PMC2902621 (Archives of biochemistry and biophysics, 2010)
pKd: −log10 of the molar value.

Target: cytochrome c peroxidase (CcP) (Saccharomyces cerevisiae, UniProt P00431, R115A/T120I/D219G/W258F)
Assay: UV-visible optical titration of ferric enzyme
Type: binding

Sequence of cytochrome c peroxidase (CcP) (P00431 68-361 R115A/T120I/D219G/W258F): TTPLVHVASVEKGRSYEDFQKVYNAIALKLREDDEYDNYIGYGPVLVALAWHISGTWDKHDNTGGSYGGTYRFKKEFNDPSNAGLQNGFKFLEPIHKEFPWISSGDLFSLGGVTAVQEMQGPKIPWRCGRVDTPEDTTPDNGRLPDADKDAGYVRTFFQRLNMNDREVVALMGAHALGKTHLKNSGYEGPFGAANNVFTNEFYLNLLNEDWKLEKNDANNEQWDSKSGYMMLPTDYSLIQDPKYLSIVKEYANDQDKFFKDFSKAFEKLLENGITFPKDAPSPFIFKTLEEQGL

N=C(N)NO [NHG, N-hydroxyguanidine]
pKd: 2.47
